Test results: patent US20100197608A1, “USE OF MELANOTROPHIN-POTENTIATING FACTOR AS A THERAPEUTIC AGENT” (priority 2007, published 2010)
Where a SMILES comes first, the peptide text is derived from it.

How the values were obtained:
CEM-SS cells = assay: Cytotoxicity in CEM-SS cells (MTS); settings: peptide 10 micrograms per ml
HIV-1IIIB = assay: HIV-1 antiviral assay (CPE reduction) in CEM-SS cells; format: cell-based; settings: peptide 10 micrograms per ml; 6 days post-infection; MTS
in vitro [1] = settings: human, CEM-SS cells
[2] = Cytotoxicity in HepG2-2.2.15 cells (dye uptake); settings: human
MRSA = settings: 5 micrograms per ml
Streptococcus pneumoniae = format: cell-based; settings: 5 micrograms per ml
Pseudomonas aeruginosa = format: cell-based; settings: 5 micrograms per ml
in vitro [3] = settings: human, MRC-5 cells
MRC-5 cells = settings: human, 6 days

SMILES: Cc1cn([C@H]2C[C@H](N=[N+]=[N-])[C@@H](CO)O2)c(=O)[nH]c1=O [AZT]
- % Cell viability (CEM-SS cells): 97%
- % CPE reduction in HIV-1 infected CEM-SS cells (HIV-1IIIB): 99%

SMILES: NCCCC[C@H](NC(=O)[C@@H](N)CCCCN)C(=O)NCC(=O)N[C@@H](CCC(=O)O)C(=O)O [MPF, Lys-Lys-Gly-Glu-OH] (H-KKGE-OH)
- viability at 10 micrograms per ml (in vitro [1]): 100%
- viability at 144 h, 10 micrograms per ml [2]: 100%
- % inhibition (MRSA): 0.0%
- % inhibition (Streptococcus pneumoniae): 0.0%
- % inhibition (Pseudomonas aeruginosa): 0.0%
- viability at 144 h (in vitro [3]): 96.1%

SMILES: Nc1nc(O)c2ncn(COC(CO)CO)c2n1 [Ganciclovir]
- % Cell viability (MRC-5 cells): 100%

SMILES: CC(C)(C)NC(=O)[C@@H]1CN(Cc2cccnc2)CCN1C[C@@H](O)C[C@@H](Cc1ccccc1)C(=O)N[C@H]1c2ccccc2C[C@H]1O [Indinavir, indinavir]
- % CPE reduction in HIV-1 infected CEM-SS cells (HIV-1IIIB): 100%
